Results as given in patent US20260015350A1, “AZAQUINAZOLINE PAN-KRAS INHIBITORS” (Mirati Therapeutics, Inc., priority 2022, published 2026).

Key:
KRas^G12D = target: T1, KRas^G12D (Homo sapiens, UniProt P01116, G12D); assay: KRas binding assay (TR-FRET tracer displacement), KRas G12D
T1 construct: Biotinylated KRas (corresponding to amino acids 1-169, produced at Accelegan Inc.); biotin (biotinylated); purchased Accelegan Inc

KRas^G12R = target: T2, KRas^G12R (Homo sapiens, UniProt P01116, G12R); assay: KRas binding assay (TR-FRET tracer displacement), KRas G12R
T2 construct: Biotinylated KRas (corresponding to amino acids 1-169, produced at Accelegan Inc.); biotin (biotinylated); purchased Accelegan Inc

KRas^G12V = target: T3, KRas^G12V (Homo sapiens, UniProt P01116, G12V); assay: KRas binding assay (TR-FRET tracer displacement), KRas G12V
T3 construct: Biotinylated KRas (corresponding to amino acids 1-169, produced at Accelegan Inc.); biotin (biotinylated); purchased Accelegan Inc

[1] = tested on: KRas-mediated phosphorylation of ERK in AsPC-1 cells; assay: Inhibition of KRas-mediated phosphorylation of ERK (Cisbio HTRF pERK), AsPC-1 cells; assay type: cell-based; conditions: Homo sapiens, ASPC1, AsPC-1 cells; HTRF pERK
Summary of the method: (§1)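 6,000 cells/well; cpd 10 uM top, 3-fold x10, 0.8% DMSO final; 3 hr incubation; Min ctrl Trametinib 0.2 uM; lysis 40 min 4° C shaking; d2 + Cryptate Ab mix, 2 hr RT; HTRF read.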

[2] = tested on: KRas-mediated phosphorylation of ERK in H727 cells; assay: Inhibition of KRas-mediated phosphorylation of ERK (Cisbio HTRF pERK), H727 cells; assay type: cell-based; conditions: Homo sapiens, NCI-H727, H727 cells; HTRF pERK
Summary of the method: as §1

T2 sequence (P01116 1-169 isoform P01116-2 G12R): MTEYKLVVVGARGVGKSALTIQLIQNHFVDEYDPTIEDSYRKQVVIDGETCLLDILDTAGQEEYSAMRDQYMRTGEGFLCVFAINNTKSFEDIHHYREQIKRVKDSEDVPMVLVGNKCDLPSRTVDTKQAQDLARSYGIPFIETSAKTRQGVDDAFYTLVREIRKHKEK
T3 sequence (P01116 1-169 isoform P01116-2 G12V): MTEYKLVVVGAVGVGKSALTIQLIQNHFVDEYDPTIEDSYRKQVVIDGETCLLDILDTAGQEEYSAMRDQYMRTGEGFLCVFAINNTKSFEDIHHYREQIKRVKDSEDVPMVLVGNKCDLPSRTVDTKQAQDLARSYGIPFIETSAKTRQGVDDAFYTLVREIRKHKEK
T1 sequence (P01116 1-169 isoform P01116-2 G12D): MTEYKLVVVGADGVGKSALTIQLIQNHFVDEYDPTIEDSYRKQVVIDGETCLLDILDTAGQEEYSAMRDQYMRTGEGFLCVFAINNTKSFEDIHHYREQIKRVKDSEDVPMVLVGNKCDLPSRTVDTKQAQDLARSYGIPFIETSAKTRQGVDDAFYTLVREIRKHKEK

| IC50 (KRas^G12D) [nM] | IC50 (KRas^G12R) [nM] | IC50 (KRas^G12V) [nM] | IC50 [1] [nM] | IC50 [2] [nM] | SMILES |
| --- | --- | --- | --- | --- | --- |
| 1630 | 453 | 590 | > 10000 | > 10000 | CCc1c(F)ccc2cc(O)cc(-c3ncc4c(N5CCC6(CC5)CC[S+]6[O-])nc(OC[C@@]56CCCN5C[C@H](F)C6)nc4c3F)c12 (stereo partly drawn) [Example 603, 7-(7-(8-ethyl-7-fluoro-3-hydroxynaphthalen-1-yl)-8-fluoro-2-(((2R,7aS)-2-fluorotetrahydro-1H-pyrrolizin-7a(5H)-yl)methoxy)pyrido[4,3-d]pyrimidin-4-yl)-1-thia-7-azaspiro[3.5]nonane 1-oxide] |
| 26 | 71 | 43 | > 10000 | > 10000 | CCc1c(F)ccc2cc(O)cc(-c3ncc4c(N5C[C@@H]6[C@@H](CC#N)NC(=O)[C@@H]6C5)nc(OC[C@@]56CCCN5C[C@H](F)C6)nc4c3F)c12 [Example 606, 2-((1R,3aS,6aR)-5-(7-(8-ethyl-7-fluoro-3-hydroxynaphthalen-1-yl)-8-fluoro-2-(((2R,7aS)-2-fluorohexahydro-1H-pyrrolizin-7a-yl)methoxy)pyrido[4,3-d]pyrimidin-4-yl)-3-oxooctahydropyrrolo[3,4-c]pyrrol-1-yl) acetonitrile] |
| 1530 | 127 | 121 | 4470 | 1950 | CCc1c(F)ccc2cc(O)cc(-c3ncc4c(N5CCC(Cc6ccn(C)n6)C5)nc(OC[C@@]56CCCN5C[C@H](F)C6)nc4c3F)c12 (stereo partly drawn) [Example 611, 5-ethyl-6-fluoro-4-(8-fluoro-2-(((2R,7aS)-2-fluorotetrahydro-1H-pyrrolizin-7a(5H)-yl)methoxy)-4-(3-((1-methyl-1H-pyrazol-3-yl)methyl)pyrrolidin-1-yl)pyrido[4,3-d]pyrimidin-7-yl)naphthalen-2-ol] |
| 4250 | 911 | 474 | > 10000 | > 10000 | CCc1c(F)ccc2cc(O)cc(-c3ncc4c(N5CCC6(CC5)OCCC6C#N)nc(OC[C@@]56CCCN5C[C@H](F)C6)nc4c3F)c12 (stereo partly drawn) [Example 612, 8-(7-(8-ethyl-7-fluoro-3-hydroxynaphthalen-1-yl)-8-fluoro-2-(((2R,7aS)-2-fluorohexahydro-1H-pyrrolizin-7a-yl)methoxy)pyrido[4,3-d]pyrimidin-4-yl)-1-oxa-8-azaspiro[4.5]decane-4-carbonitrile] |
| 805 | 701 | 398 | > 10000 | > 10000 | CCc1c(F)ccc2cc(O)cc(-c3ncc4c(N5CC[C@@H]6C(=O)NC(=O)[C@@H]6CC5)nc(OC[C@@]56CCCN5C[C@H](F)C6)nc4c3F)c12 [Example 614, (3aR,8aS)-6-(7-(8-ethyl-7-fluoro-3-hydroxynaphthalen-1-yl)-8-fluoro-2-(((2R,7aS)-2-fluorohexahydro-1H-pyrrolizin-7a-yl)methoxy)pyrido[4,3-d]pyrimidin-4-yl)hexahydropyrrolo[3,4-d]azepine-1,3(2H,3aH)-dione] |
| 495 | 376 | 248 | 9680 | 6800 | CCc1c(F)ccc2cc(O)cc(-c3ncc4c(N5CCCC(C6CCC(=O)N6)C5)nc(OC[C@@]56CCCN5C[C@H](F)C6)nc4c3F)c12 (stereo partly drawn) [Example 620, 5-(1-(7-(8-ethyl-7-fluoro-3-hydroxynaphthalen-1-yl)-8-fluoro-2-(((2R,7aS)-2-fluorohexahydro-1H-pyrrolizin-7a-yl)methoxy)pyrido[4,3-d]pyrimidin-4-yl)piperidin-3-yl)pyrrolidin-2-one] |

| SMILES | IC50 (KRas^G12D) [nM] | IC50 (KRas^G12R) [nM] | IC50 (KRas^G12V) [nM] | IC50 [1] [nM] | IC50 [2] [nM] |
| --- | --- | --- | --- | --- | --- |
| CCc1c(F)ccc2cc(O)cc(-c3ncc4c(N5CC6(CO)CC(C7CC7)(C5)C6)nc(OC[C@@]56CCCN5C[C@H](F)C6)nc4c3F)c12 [Example 613, 4-(4-(1-cyclopropyl-5-(hydroxymethyl)-3-azabicyclo[3.1.1]heptan-3-yl)-8-fluoro-2-(((2R,7aS)-2-fluorohexahydro-1H-pyrrolizin-7a-yl)methoxy)pyrido[4,3-d]pyrimidin-7-yl)-5-ethyl-6-fluoronaphthalen-2-ol] | 54800 | 27500 | 21800 | > 10000 | > 10000 |
